Test results taken from PubChem BioAssay (NCI).
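Assay format: 96-well plates, 48-hour exposure. TGI marks complete inhibition of growth.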 Where a SMILES comes first, the peptide text is derived from it. The star is where a group is joined. Boc = CC(C)(C)OC(=O)*; OBn = c1ccc(CO*)cc1

Legend:
Test in all cases: NCI tumour cell line growth inhibition, 48 h
786-0 renal = test system: 786-0 renal
A498 renal = test system: A498 renal
ACHN renal = test system: ACHN renal
COLO 205 colon = test system: COLO 205 colon
DU-145 prostate = test system: DU-145 prostate
EKVX NSCLC = test system: EKVX NSCLC
HOP-62 NSCLC = test system: HOP-62 NSCLC
HT29 colon = test system: HT29 colon
MDA-MB-231 breast = test system: MDA-MB-231 breast
MDA-MB-435 = test system: MDA-MB-435
NCI-H460 lung = test system: NCI-H460 lung
NCI-H522 lung = test system: NCI-H522 lung
SF-268 CNS = test system: SF-268 CNS
SF-295 CNS = test system: SF-295 CNS
SK-OV-3 ovarian = test system: SK-OV-3 ovarian
T-47D breast = test system: T-47D breast
TK-10 renal = test system: TK-10 renal
U251 CNS = test system: U251 CNS
UO-31 renal = test system: UO-31 renal

Row | SMILES | TGI (786-0 renal) | TGI (A498 renal) | TGI (ACHN renal) | TGI (COLO 205 colon) | TGI (DU-145 prostate) | TGI (EKVX NSCLC) | TGI (HOP-62 NSCLC) | TGI (HT29 colon) | TGI (MDA-MB-231 breast) | TGI (MDA-MB-435) | TGI (NCI-H460 lung) | TGI (NCI-H522 lung) | TGI (SF-268 CNS) | TGI (SF-295 CNS) | TGI (SK-OV-3 ovarian) | TGI (T-47D breast) | TGI (TK-10 renal) | TGI (U251 CNS) | TGI (UO-31 renal)
1 | O=C1CC(NC(=O)C(F)(F)F)c2c1csc2Br (centres undefined) | 83.1 µM | > 100 µM | > 100 µM | > 100 µM | > 100 µM | 38.2 µM | > 100 µM | > 100 µM | > 100 µM | > 100 µM | > 100 µM | > 100 µM | 62.3 µM | > 100 µM | > 100 µM | > 100 µM | > 100 µM | > 100 µM | > 100 µM
2 | Cc1oc2c(c1C)S(=O)(=O)C(C#N)C(c1ccccc1)N2 (centres undefined) | > 100 µM | > 100 µM | > 100 µM | > 100 µM | > 100 µM | > 100 µM | > 100 µM | > 100 µM | > 100 µM | > 100 µM | > 100 µM | 40.2 µM | > 100 µM | > 100 µM | > 100 µM | > 100 µM | > 100 µM | > 100 µM | > 100 µM
3 | CC(C)C(NC(=O)C(Cc1ccccc1)NC(=O)OC(C)(C)C)C(=O)NCC(=O)OCc1ccccc1 (stereo not drawn) (Boc-Phe-Val-Gly-OBn; configuration not given here) | 32.1 µM | > 100 µM | 31.4 µM | 35.5 µM | 28.7 µM | 37.9 µM | 35.6 µM | 38.5 µM | 32.3 µM | 21.9 µM | 37.9 µM | 20.1 µM | 28.2 µM | 34.6 µM | 28 µM | 36.7 µM | 27.1 µM | 32.2 µM | 51.6 µM
4 | CCOC(=O)C1=CN/C(=C(/C)C(=O)OC)SC1C(=O)OCC (centres undefined) | > 100 µM | > 100 µM | > 100 µM | > 100 µM | > 100 µM | > 100 µM | > 100 µM | > 100 µM | > 100 µM | > 100 µM | > 100 µM | > 100 µM | > 100 µM | > 100 µM | > 100 µM | > 100 µM | > 100 µM | > 100 µM | > 100 µM
5 | CNc1c2cccc(C)c2nc2c(C(=O)NCCN(C)C)cccc12 | 1.47 µM | 0.935 µM | 0.723 µM | 0.278 µM | 0.684 µM | 1.33 µM | 0.578 µM | 0.138 µM | 0.274 µM | 0.34 µM | 0.206 µM | 0.109 µM | 0.318 µM | 0.952 µM | 1.94 µM | 0.675 µM | 0.617 µM | 0.651 µM | 2.49 µM
6 | O=C(N/N=C/c1ccc2c(c1)OCO2)Nc1ccccc1Cl | > 55 µM | 35.6 µM | > 100 µM | 5.52 µM | > 20.3 µM | > 60.5 µM | > 100 µM | > 49.1 µM | > 100 µM | 1.33 µM | 16.6 µM | 1.1 µM | > 82.5 µM | 6.84 µM | > 24.9 µM | > 38.3 µM | 21 µM | > 100 µM | > 100 µM
